Results: PMC8955773 (Pharmaceuticals, 2022)
Several values for one entry are separate records, joined by “and”; a condition that tells them apart may be missing. Identical values can stand only once. Entries after “also recorded” stand apart in the source; their conditions may differ. Like-named read-outs stand apart in the source and are kept apart here.

Experiments:
[1] = target: T1, Butyrylcholinesterase (EC 3.1.1.8, BChE) from equine serum (eqBChE) (Equus caballus, UniProt P81908)
T1 construct: Butyrylcholinesterase (EC 3.1.1.8, BChE) was from equine serum (eqBChE) (Sigma-Aldrich); purchased Sigma-Aldrich; host or cells: equine serum
T1 sequence (P81908 whole entry): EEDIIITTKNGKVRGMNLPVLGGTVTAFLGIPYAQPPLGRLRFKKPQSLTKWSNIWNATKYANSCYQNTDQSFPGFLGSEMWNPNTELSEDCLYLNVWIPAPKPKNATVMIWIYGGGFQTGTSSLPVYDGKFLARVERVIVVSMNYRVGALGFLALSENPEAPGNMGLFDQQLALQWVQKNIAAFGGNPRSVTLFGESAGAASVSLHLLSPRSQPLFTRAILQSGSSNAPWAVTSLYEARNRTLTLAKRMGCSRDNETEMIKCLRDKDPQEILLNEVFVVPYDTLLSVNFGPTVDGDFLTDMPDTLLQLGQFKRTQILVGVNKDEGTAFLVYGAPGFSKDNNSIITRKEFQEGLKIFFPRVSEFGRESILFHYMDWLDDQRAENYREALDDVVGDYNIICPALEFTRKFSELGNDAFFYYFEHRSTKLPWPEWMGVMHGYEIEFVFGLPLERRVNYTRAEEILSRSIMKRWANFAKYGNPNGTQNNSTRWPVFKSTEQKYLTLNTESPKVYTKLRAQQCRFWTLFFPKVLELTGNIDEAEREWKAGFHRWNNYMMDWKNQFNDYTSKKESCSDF

[2] = target: T1, Butyrylcholinesterase (EC 3.1.1.8, BChE) from equine serum (eqBChE); test: Butyrylcholinesterase inhibition, Ellman's method; format: biochemical; details: for IC50: eqBChE, BTCI substrate, pH 8.0, 37 °C, mean ± SD of three independent experiments
Protocol: The effect of the benzofuran derivatives was evaluated on the commercial enzyme from an animal source due to its low cost and remarkable similarity with the human enzyme.
The cholinesterase inhibition activity was executed using Ellman’s method, as previously described with slight modifications.
S-Butyrylthiocholine iodide (BTCI) and 5,5′-dithiobis-(2-nitrobenzoic) acid (DTNB) (Merck/Sigma-Aldrich) were used for the determination of the BChE activity. Butyrylcholinesterase (EC 3.1.1.8, BChE) was from equine serum (eqBChE) (Sigma-Aldrich). We used 96-well plates for analysis, to each well we added 70 μL phosphate-buffered (0.1 M, pH 8.0), 4 μL different concentration of the tested compounds or dimethyl sulfoxide (for control experiment), 6 μL enzyme (final concentration 0.15 U/mL in buffer), and 100 μL DTNB (1.5 mM final). The solution was preincubated for 5 min at 37 °C, then 20 μL BTCI 1.5 mM solution as the substrate was added to the reaction mixture. The absorbance change was measured at 405 nm, with a microplate reader FLUOstar OPTIMA (BMG Labtech, Offenburg, Germany). […] Each experiment was done in triplicate.
The statistical significance of differences was evaluated using one-way analysis of variation (one-way ANOVA), and Tukey’s multiple comparisons. Results were expressed as mean ± standard deviation (SD), and statistically significant differences were evaluated with p < 0.001 as a minimal significance level.

[3] = 2-phenylbenzofurans without spacer; cited from earlier work
[4] = read-out: IC50, inhibitory effect on BChE activity

SMILES | IC50 [2, 4] | further results
Oc1ccc(-c2cc3cc(Br)ccc3o2)cc1 [Compound 9A] | – | BChE inhibitory activity (in words) [1, 3]: no activity; also recorded: negligible inhibitory activity; also recorded: no BChE inhibition; IC50 ([1]; read-out: IC50, inhibitory effect on BChE activity; 2-phenylbenzofurans given for comparison; cited from earlier work): > 100 µM
Oc1ccc(Cc2cc3cc(Br)ccc3o2)cc1 [Compound 9B, 5-bromo-2-(4-hydroxybenzyl)benzofuran] | 2.93 µM and 2.9 µM | inhibitory activity, fold higher than 14A ([2]; BChE, ratio of IC50 values): about 4 fold; inhibitory activity, times higher than galantamine ([2]; BChE, ratio of IC50 values): 10 times
Oc1ccc(-c2cc3cccc(Br)c3o2)cc1 [Compound 10A] | – | BChE inhibitory activity (in words) [1, 3]: negligible inhibitory activity
Oc1ccc(Cc2cc3cccc(Br)c3o2)cc1 [Compound 10B] | 32.6 ± 2.04 µM | –
Oc1ccc(-c2cc3cc(Cl)ccc3o2)cc1 [Compound 11A] | – | IC50 ([1]; 2-phenylbenzofurans given for comparison; read-out: IC50, inhibitory effect on BChE activity; cited from earlier work): > 100 µM
Oc1ccc(Cc2cc3cc(Cl)ccc3o2)cc1 [Compound 11B] | 55.7 ± 0.8 µM | –
Oc1ccc(Cc2cc3cccc(Cl)c3o2)cc1 [Compound 12B] | 43 ± 5.65 µM | –
Oc1cccc(-c2cc3cc(Br)ccc3o2)c1 [Compound 13A] | – | IC50 ([2]; IC50, inhibitory effect on BChE activity): 10.6 ± 1.65 µM
Oc1cccc(Cc2cc3cc(Br)ccc3o2)c1 [Compound 13B] | 39.9 ± 4.31 µM | –
Oc1cccc(Cc2cc3cccc(Br)c3o2)c1 [Compound 14B] | 31.37 ± 0.15 µM | –
Oc1cccc(Cc2cc3cc(Cl)ccc3o2)c1 [Compound 15B, 5-chloro-2-(3-hydroxybenzyl)benzofuran] | 27.8 ± 3.07 µM | –
Oc1cccc(Cc2cc3cccc(Cl)c3o2)c1 [Compound 16B] | 61.7 ± 5.9 µM | –
